Source: patent publication US12344600B2, “c-Myc mRNA translation modulators and uses thereof in the treatment of cancer” (Anima Biotech Inc., priority 2022, dated 2025)
Starred links: 1 amine or outer side, 2 acyl side, 3 side chain; linkers in the order of their positions; H or OH if unused. Positions of bridges follow the written chain, without caps; N, C: chain ends. Non-standard residues stand in square brackets, D forms with d. Residues, ends and D or L forms follow the SMILES beside them. Chains are numbered I, II in the order given. Actinocin(9to1) = Cc1c2oc3c(C)ccc(C(=O)[*:1])c3nc-2c(C(=O)[*:2])c(N)c1=O; NMeV = CN[C@H](C(=O)O)C(C)C; Sar = CNCC(=O)O

How the values were obtained:
Type in all cases: cell-based, human
c-Myc = c-Myc immunofluorescence assay; settings: A549 cells, 24 hours; for Myc Efficacy (−LogEC50): anti-c-Myc immunofluorescence
In short: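 Read-out is imaged c-Myc immunofluorescence, nucleus-segmented, in A549 lung carcinoma cells exposed to compound dose series for 24 h after 48 h growth. Fixation 4% paraformaldehyde, Triton permeabilization, antibody staining at room temperature; EC50 from logistic fit of signal versus concentration.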

c-Myc mRNA [1] = test: Fluorescent in situ hybridization (FISH) assay; settings: A549 cells, 4 hours, FIG. 3 lower panel
Protocol: A549 cells were incubated with compounds for 24 hours (FIG. 3, upper panel) and c-Myc protein detected by immunofluorescence. In parallel, A549 cells were incubated with compounds for 4 hours and c-Myc mRNA was visualized by microscopy using c-Myc mRNA specific fluorescent-tagged probes (FIG. 3, lower panel).
A549 cells were grown in 384-wells plates (Perkin Elmer, Cat. 6057300) for 48 hours, treated with compounds for 4 hours and then fixed for 20 min in 4% paraformaldehyde. Next day, permeabilization was done for 90 min at 4° C., using 70% ethanol. Then, the cells were incubated for 10 min with 10% formamide in 10% saline-sodium citrate. Fluorescently labeled customer DNA probes that target c-Myc (Cy3, BioSearch Technologies, Cat. SMF-1063-5) and GAPDH (Cy5, BioSearch Technologies, Cat. SMF-2019-1) mRNAs were hybridized overnight at 37° C. in a dark chamber in 10% formamide. The next day, cells were washed twice with 10% formamide for 30 min. […]
Following RNA FISH experiments, images of cells were taken with Operetta (Perkin Elmer, USA), a wide-field fluorescence microscope at ×63 magnification. […] In Columbus, cells were identified by their nucleus, using the “Find Nuceli” module, cytoplasm was detected based on the FISH-channel, and single mRNAs in the cytoplasm and transcription sites in the nucleus were detected using “Find Spots” module. […]

c-Myc mRNA [2] = test: c-Myc mRNA level and transcription sites in A549 cells (imaging)
Excerpt: (§1) A549 cells were exposed to vehicle, general transcription inhibitor actinomycin D or anti-c-Myc compound. […] Cell nuclei stained with DAPI, c-Myc protein, c-Myc mRNA and transcription sites are signed on the images.

c-Myc protein = c-Myc protein level in A549 cells (imaging)
Excerpt: as §1

global protein synthesis = test: AHA metabolic labeling in A549 cells
Excerpt: FIG. 2 depicts selective regulation of c-Myc translation. […] Cell nuclei stained with DAPI and AHA metabolic labeling are signed on the images.

[3] = tested on: global translation in A549 cells; test: Metabolic labeling assay (global translation); settings: 4 hour pulse, FIG. 2
Protocol: A549 cells were incubated with active compounds and metabolically labelled with fluorescent methionine for a 4 hour pulse (click-chemistry modified methionine). Cells were fixed and newly synthesized proteins detected by using click-chemistry with a fluorescent detector (FIG. 2).
A549 cells were seeded at 3,200 cells per well in complete culture medium. Plates were incubated at 37° C., 5% CO2 overnight. After 48 hours of incubation, the growth medium was aspirated, and cells were washed three times with HBSS. Metabolic labeling medium DMEM (-Cys -Met), containing 10% dialyzed FBS, 1% penicillin-streptomycin and 1% L-glutamine was added to the cells for 30 min. Then medium was replaced by metabolic labeling medium containing 25 μM L-Azidohomoalanine (AHA, ThermoFisher) and tested compounds at a final concentration of 30 μM, and cells were incubated for 4 hours at 37° C., 5% CO2. Cells were washed by HBSS at 37° C. for 15 min before fixing with 4% paraformaldehyde. Cells were washed twice with 3% BSA in PBS before permeabilization with 0.5% Triton X-100 in PBS for 20 min. The AHA staining with Alexa Fluor™ 555 alkyne was performed according to the manufacturer protocol. Images were captured with Operetta microscope (Perkin Elmer) using ×20 high NA objective lens.

In the case of `Cc1ccc(CN2CCC(CNC(=O)N3CCN(c4nc(-c5ccc(OCC(O)CO)cc5)no4)CC3)C2)cc1` (stereo not shown) [Compound 473, 4-(3-(4-(2,3-dihydroxypropoxy)phenyl)-1,2,4-oxadiazol-5-yl)-N-((1-(4-methylbenzyl)pyrrolidin-3-yl)methyl)piperazine-1-carboxamide], the “Myc Efficacy (−LogEC50)” value (c-Myc) is reported as “+ (+ >3 and <5)”.
With `CN1CCC[C@@H](CN2CC[C@@H](CNC(=O)C3CCN(c4nc(-c5ccc(Cl)cc5)no4)CC3)C2)C1` [Compound 474, 1-(3-(4-chlorophenyl)-1,2,4-oxadiazol-5-yl)-N-(((S)-1-(((R)-1-methylpiperidin-3-yl)methyl)pyrrolidin-3-yl)methyl)piperidine-4-carboxamide] the “Myc Efficacy (−LogEC50)” value (c-Myc) was “++ (++ ≥5 and <6)”.
`CN1CCC[C@@H](CN2CC[C@H](CNC(=O)C3CCN(c4nc(-c5ccc(Cl)cc5)no4)CC3)C2)C1` [Compound 475, 1-(3-(4-chlorophenyl)-1,2,4-oxadiazol-5-yl)-N-(((R)-1-(((R)-1-methylpiperidin-3-yl)methyl)pyrrolidin-3-yl)methyl)piperidine-4-carboxamide] was tested, and the “Myc Efficacy (−LogEC50)” value (c-Myc) was “++ (++ ≥5 and <6)”.
For `Cc1c2oc3c(C)ccc(C(=O)N[C@@H]4C(=O)N[C@H](C(C)C)C(=O)N5CCC[C@H]5C(=O)N(C)CC(=O)N(C)[C@@H](C(C)C)C(=O)O[C@@H]4C)c3nc-2c(C(=O)N[C@@H]2C(=O)N[C@H](C(C)C)C(=O)N3CCC[C@H]3C(=O)N(C)CC(=O)N(C)[C@@H](C(C)C)C(=O)O[C@@H]2C)c(N)c1=O` [actinomycin D] (I: T[dV]P[Sar][NMeV] / II: T[dV]P[Sar][NMeV]; ester I:1-I:C, II:1-II:C; linker I:N-II:N via Actinocin(9to1)), the “c-Myc protein by immunofluorescence” value (c-Myc; FIG. 3 upper panel) was “reduced c-Myc protein”, the “c-Myc mRNA in the cytoplasm” value (c-Myc mRNA [1]) was “inhibited” and the “c-Myc transcription site (spots inside the nucleus)” value (c-Myc mRNA [1]) was “inhibited transcription site”. The “c-Myc mRNA level as well as transcription sites” value (c-Myc mRNA [2]) was “complete reduction” and the c-Myc protein level (c-Myc protein) was “significant decrease”.
With `C[C@@H]1C[C@@H]([C@H](O)CC2CC(=O)NC(=O)C2)C(=O)[C@@H](C)C1` [cycloheximide] the “global protein synthesis (AHA metabolic labeling)” value (global protein synthesis) was “total inhibition” and the “incorporation of modified methionine (global translation)” value [3] was “completely reduced incorporation of modified methionine”.
